US6548505B1, “Radioprotectors” (Peter MacCallum Cancer Institute, priority 1995, dated 2003)
Values joined by “and” are separate entries in the source; they are usually repeats but may differ in a detail not shown here. Equal entries are not always repeated.

Tests used:
[1] = system: pig skin; assay: Pig skin studies, topical radioprotector cream; format: in vivo; details: 36 Gy, cream 0.15 g/field, 5000 μg/g
From the text: The pig skin model is described by J. W. Hopewell^4. The structural similarities between human and pig skin underlie the relevance of the model.
Although some pig skin studies involve external beam irradiation, a particularly convenient radiation source is discs containing β-emitting isotopes, typically ^90Sr. The sources can be held to the skin, or for higher doses, taped to the animal, for appropriate periods of time to deliver the required dose. The discs are typically about 2 cm in diameter so that an array of different doses can be arranged on the flanks of a single animal.
The “acute” reactions (3-9 weeks after irradiation) result from radiation damage to the basal cells of the epidermis, and are manifest as erythema, and dry and moist desquamation. The “late” reactions (10-16 weeks) results from radiation effects to the dermal vascular connective tissue, characterized by a dusky mauve erythema and necrosis. The scoring system is well described.
The radioprotectors were formulated in a propylene glycol cream containing 10% DMSO. The extent and kinetics of penetration were followed by fluorescence microscopy of frozen skin sections, to enable optimization of delivery.
Radiation dose response curves were constructed for radiation only fields. The results of fields with radioprotector creams are shown in Table 3 below, with the respective cream (vehicle) only controls. The decrease in extent of skin reaction for the test fields is evident.

[2] = system: V79 cells; assay: Radioprotection, clonogenic survival of irradiated V79 cells; format: cell-based; details: for Protector plus irradiation (12 Gy), survival fraction relative to untreated control cells / Protection Factor: 12 Gy; for Protection Factor: ratio of survival fractions with and without protector
Experimental: (§1) Monolayers of V79 cells were maintained in 25 cm^2 Falcon plastic flasks in alpha-MEM medium with 10% foetal calf serum (FCS). Log phase cultures were treated by adding the required amount of Hoechst 33258, Hoechst 33342 or para dimethylamino Hoechst (25-500 nmoles) dissolved in 50 μL 10 μM acetic acid in 50% methanol. The flasks were inverted immediately prior to adding the compound to ensure complete mixing of the compound with the medium, before contact with the monolayer.
(§2) After 2 hours incubation at 37° C., the cells were harvested and assayed for clonogenic survival. […] All clonogenic survival results are expressed relative to the untreated controls.
Cultures were irradiated in a 137Cs Gammacell-40 (Atomic Energy of Canada Ltd.) at a dose rate of 0.84 Gy/min. Ligand-treated cells were irradiated two hours after starting the exposure to the ligand. In all cases, the clonogenic survival was delayed until one hour after completion of irradiation.
(§3) Hoechst 33258, Hoechst 33342 or para dimethylamino Hoechst was added to the media of monolayers of V79 cells, to the indicated final concentrations. […] All cultures were held for a further one hour prior to plating for clonogenic survival.
Mono layer cultures of V79 cells were exposed to various concentrations of the three radioprotectors, as described in (a) above. After two hours, the cells were chilled and kept cold during the isolation of nuclei, using 0.08% w.v Triton X-100. After counting an aliquot of the nuclear suspension, the ligands were extracted and quantitated by spectrophotometry and the nuclear content calculated. The survival results shown in the lower part of FIG. 1 were replotted using the nuclear uptake data and the results are shown in FIG. 2.
The first three columns show survival fraction relative to that for untreated control cells. Each row represents a separate experiment and the figures are the means of duplicates. The figures in square brackets is the mean of a number of the results of a number of experiments done over the relevant period. The protection factor is the ratio of survival fractions for irradiated cells, with and without protector.
A number of bibenzimidazoles represented by formula (I) have been synthesised and assayed for radioprotective activity in cell culture. Assays were conducted using V79 fibroblasts and involved exposure of the cells to a single radiation dose (12Gy) and comparison of the clonogenic survival with and without the inclusion of the protector in the cell culture medium. The ratio of the survival fractions (with protector/without), designated the protection ratio (PR12Gy), provides a measure of the extent of radioprotection. The experimental protocol adopted was as in Example 12.

[3] = system: V79 cells; assay: Cytotoxicity, clonogenic survival of V79 cells without irradiation
Experimental: as §1, §2, §3

[4] = system: Chinese Hamster Ovary (CHO) fibroblasts; assay: Radioprotection survival curves of cultured CHO cells (FIG. 7, Table 5); format: cell-based; details: 20 μM, ratio of doses reducing survival to 10% of control
From the text: where S is the survival fraction at dose D Gy, and α and β are constants.
The fitted values of α and β were used to calculate the radiation doses (D0.1) corresponding to a survival fraction of 0.1. The ratio of the D0.1 values with and without protector, then provided the Dose Modification Factor (DMF) for each compound:
DMF=D0.1(with protector)/D0.1(without)

CN1CCN(c2ccc3[nH]c(-c4ccc5[nH]c(-c6ccc(N(C)C)cc6)nc5c4)nc3c2)CC1 [Compound 1, 4Dimethylamino-1-[5′-{5′″-(4′″-methylpiperazin-1′″-yl)benzimidazol-2″-yl]benzimidazol-2′-yl}benzene]
Fields showing moist desquamation (10 weeks post-Irr.) # [1]: 4/7 | Fields showing moist desquamation (10 weeks post-Irr.) % [1]: 57% | DMF ([2]; V79, 84 μM, survival curves FIG. 3): 1.7 | Protection ratio 12Gy, Exp 8 ([2]; V79, 12Gy 137Cs-γ, 20 μM): 5.1 | Protection ratio 12Gy, Exp 8 ([2]; V79, 12Gy 137Cs-γ, 40 μM): 7.7 | Protection ratio 12Gy, Exp 8 ([2]; V79, 12Gy 137Cs-γ, 50 μM): 8.0 | radioprotective potency, survival after 12Gy in terms of nuclear content of the radioprotector ([2]; V79 cells, 12Gy, uptake per 10^6 nuclei, FIG. 2): more potent radioprotector | concentration up to which there is no effect on survival ([3]; V79 cells, no irradiation, clonogenic survival, FIG. 1): up to 100 μM

CN(C)c1ccc(-c2nc3cc(-c4nc5cc(N6CCCCC6)ccc5[nH]4)ccc3[nH]2)cc1 [Compound 2, 4-Dimethylamino-1-{5′-[5″-(piperidin-1′″-yl)benzimidazol-2″-yl]benzimidazol-2′-yl}benzene]
Protector plus irradiation (12 Gy), survival fraction relative to untreated control cells ([2]; 17 μM): 0.062 and 0.059 | Protection Factor ([2]; 17 μM): 2.8 and 2.7 | Protector only (no irradiation), survival fraction relative to untreated control cells ([3]; 17 μM): 0.89 and 0.81

CCOc1ccc(-c2nc3cc(-c4nc5cc(N6CCN(C)CC6)ccc5[nH]4)ccc3[nH]2)c(C)c1 [Compound 6, 4-Ethoxy-2-methyl{5′-[5″(4′″-methylpiperazin-1′″-yl)benzimidazol-2″-yl]benzimidazol-2′-yl}benzene]
Protection ratio 12Gy, Exp 3 ([2]; V79, 12Gy 137Cs-γ, 20 μM): 8.0

CCOc1ccc(-c2nc3cc(-c4nc5cc(N6CCN(C)CC6)ccc5[nH]4)ccc3[nH]2)c(C(C)C)c1 [Compound 7, 4-Ethoxy-2i-propyl-1-{5′-[5″-(4′″-methylpiperazin-1′″-yl)benzimidazol-2′-yl]benzimidazol-2′-yl}benzene]
Protection ratio 12Gy, Exp 4 ([2]; V79, 12Gy 137Cs-γ, 20 μM): 10.8 | Protection ratio 12Gy, Exp 4 ([2]; V79, 12Gy 137Cs-γ, 30 μM): 10.4 | Protection ratio 12Gy, Exp 5 ([2]; V79, 12Gy 137Cs-γ, 30 μM): 11.3 | Protection ratio 12Gy, Exp 4 ([2]; V79, 12Gy 137Cs-γ, 40 μM): 14.2 | Protection ratio 12Gy, Exp 5 ([2]; V79, 12Gy 137Cs-γ, 40 μM): 13.2 | Protection ratio 12Gy, Exp 5 ([2]; V79, 12Gy 137Cs-γ, 50 μM): 15.2 | DMF [4]: 1.42

CN1CCN(c2ccc3[nH]c(-c4ccc5[nH]c(-c6cccc(N(C)C)c6)nc5c4)nc3c2)CC1 [Compound 9, 3-N,N-Dimethylamino-1-{5′-[5″-(4′″-methylpiperazin-1′″-yl)benzimidazol-2″-yl]benzimidazol-2′-yl}benzene]
Protection ratio 12Gy, Exp 6 ([2]; V79, 12Gy 137Cs-γ, 20 μM): 3.6 | Protection ratio 12Gy, Exp 7 ([2]; V79, 12Gy 137Cs-γ, 30 μM): 7.6 | Protection ratio 12Gy, Exp 7 ([2]; V79, 12Gy 137Cs-γ, 40 μM): 7.2 | Protection ratio 12Gy, Exp 1 ([2]; V79, 12Gy 137Cs-γ, 50 μM): 9.7 | Protection ratio 12Gy, Exp 2 ([2]; V79, 12Gy 137Cs-γ, 50 μM): 9.5 | Protection ratio 12Gy, Exp 7 ([2]; V79, 12Gy 137Cs-γ, 50 μM): 8.2

CCOc1ccc(-c2cc3ccc(-c4nc5cc(N6CCN(C)CC6)ccc5[nH]4)cc3[nH]2)cc1 [Compound 10, 4-Ethoxy-1-{6′-[5″-(4′″-methylpiperazin-1′″-yl)benzimidazol-2″-yl]indol-2′-yl}benzene]
Protection ratio 12Gy, Exp 9 ([2]; V79, 12Gy 137Cs-γ, 20 μM): 1.5 | Protection ratio 12Gy, Exp 9 ([2]; V79, 12Gy 137Cs-γ, 40 μM): 1.4

CN1CCN(c2ccc3[nH]c(-c4ccc5[nH]c(-c6ccc([N+](=O)[O-])cc6)nc5c4)nc3c2)CC1 [para nitro Hoechst, reference compound]
Protector plus irradiation (12 Gy), survival fraction relative to untreated control cells ([2]; 20 μM): 0.011 | Protection Factor ([2]; 20 μM): [0.5]* | Protector only (no irradiation), survival fraction relative to untreated control cells ([3]; 20 μM): 0.89
